From patent EP0326331B1, “Substituted quinolines and cinnolines” (Dow AgroSciences LLC, priority 1988, dated 1989)

Legend:
Format in all cases: in vivo
[1] = test system: Pseudoperonospora cubensis (downy mildew); assay: Test 1 greenhouse foliar spray screen, downy mildew on squash; conditions: for pest or weed control at 400 ppm: Pseudoperonospora cubensis, foliar, Test 1, foliar spray on squash, disease control rating at 400 ppm / 100 ppm, read-out: DOWN MDEW; for activity against downy mildew: summary statement in the description
[2] = test system: Venturia inaequalis (apple scab); assay: Test 1 greenhouse foliar spray screen, apple scab on apple seedling; conditions: Venturia inaequalis; Test 1, foliar spray on apple seedling; disease control rating at 400 ppm / 100 ppm; read-out: APPL SCAB
[3] = test system: plant pathogens; assay: Fungicidal efficacy against a broad spectrum of plant pathogens (summary of screen); conditions: summary statement in the description
[4] = test system: Twospotted spider mites (Tetranychus urticae Koch); assay: Mite/insect screen, SM; conditions: for mortality at 200 ppm: rate 200 ppm
Summary of the method: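 Foliar spray to runoff (10 psi), 1 h drying; aqueous dilutions from acetone/alcohol emulsifier stock. Mortality (%) after standard exposure.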

[5] = test system: Erysiphe graminis tritici (powdery mildew); assay: Test 1 greenhouse foliar spray screen, powdery mildew on wheat; conditions: Blumeria graminis, foliar, Test 1, foliar spray on wheat; disease control rating at 400 ppm / 100 ppm; read-out: POWD MDEW
[6] = test system: corn rootworm; assay: Mite/insect screen, CRW; conditions: percent mortality, read-out: CRW RESULTS %; for mortality at 12 ppm: CRW rate 12.00 ppm
Summary of the method: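 Read-out: % mortality after standard exposure. Formulation: acetone/alcohol (50:50) with emulsifiers at 23 g and 13 g per liter, water-diluted to final test levels.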

[7] = test system: Pyrenophora teres; assay: Field tests against plant pathogens; conditions: field test, crop barley
From the text: (§1) Selected compounds were field tested against a variety of plant pathogens. […]

[8] = test system: Pseudocercosporella herpotrichoides; assay: Field tests against plant pathogens; conditions: field test, crop wheat
From the text: as §1

[9] = test system: Erysiphe graminis tritici; assay: Field tests against plant pathogens; conditions: field test, crop wheat
From the text: as §1

[10] = test system: Sphaerotheca fuliginea; assay: Field tests against plant pathogens; conditions: field test, crop cucumber
From the text: as §1

[11] = test system: Rhynchosporium secalis; assay: Field tests against plant pathogens; conditions: field test, crop barley
From the text: as §1

[12] = test system: Podosphaera leucotricha; assay: Field tests against plant pathogens; conditions: field test, crop apple
From the text: as §1

[13] = test system: Plasmopara viticola; assay: Field tests against plant pathogens; conditions: field test, crop grape
From the text: as §1

[14] = test system: Uncinula necator; assay: Field tests against plant pathogens; conditions: field test, crop grape
From the text: as §1

[15] = test system: Alternaria brassica; assay: Field tests against plant pathogens; conditions: field test, crop rape
From the text: as §1

[16] = test system: Cercospora beticola (leaf spot); assay: Test 1 greenhouse foliar spray screen, leaf spot on sugar beet; conditions: Cercospora beticola; Test 1, foliar spray on sugar beet; disease control rating at 400 ppm / 100 ppm
[17] = test system: Botrytis cinerea (gray mold); assay: Test 1 greenhouse foliar spray screen, gray mold on grape berries; conditions: Botrytis cinerea, foliar; Test 1, spray on grape berries; disease control rating at 400 ppm / 100 ppm
[18] = test system: southern armyworm (Spodopetra eridania Cramer); assay: Mite/insect screen, SAW; conditions: Spodoptera eridania, foliar, percent mortality, foliar spray on squash, read-out: SAW RESULTS %; for mortality at 200 ppm: rate 200 ppm
Summary of the method: (§2)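 Read-out: percent mortality after standard exposure periods. Test solutions were water dilutions of compound dissolved in acetone/alcohol (50:50) with emulsifier blends; leaves were sprayed to runoff on both surfaces and air-dried for one hour before exposure.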

[19] = test system: Septoria tritici (leaf blotch); assay: Test 1 greenhouse foliar spray screen, leaf blotch on wheat; conditions: Zymoseptoria tritici; Test 1, foliar spray on wheat; disease control rating at 400 ppm / 100 ppm; read-out: LEAF BLOT
[20] = test system: Pyricularia oryzae (rice blast); assay: whole plant or invertebrate; conditions: for pest or weed control at 400 ppm: Pyricularia oryzae, foliar, read-out: RICE BLAST, Test 1, foliar spray on rice, disease control rating at 400 ppm / 100 ppm
[21] = test system: Piricularia oryzae; conditions: field test, crop rice
[22] = test system: melon aphids (Aphis gossypii Glover); assay: Mite/insect screen, MA; conditions: Aphis gossypii, foliar, percent mortality, foliar spray on squash, read-out: MA RESULTS %; for mortality at 200 ppm: rate 200 ppm
Summary of the method: as §2

[23] = test system: Puccinia recondita tritici (leaf rust); assay: Test 1 greenhouse foliar spray screen, leaf rust on wheat; conditions: Puccinia recondita, foliar, Test 1, foliar spray on wheat; disease control rating at 400 ppm / 100 ppm
[24] = test system: green cloverworm; assay: Field trials against pest species; conditions: field trial, host alfalfa (Lucerne)
Description: (§3) 4-[2-[4-(t-Butyl)phenyl]ethoxy]-8-fluoroquinoline (Example 221) was evaluated in a number of field trials. […]

[25] = test system: twospotted spider mite; assay: Field trials against pest species; conditions: field trial, host broccoli
Description: as §3

[26] = test system: tarnished plant bug; assay: Field trials against pest species; conditions: field trial, host alfalfa (Lucerne)
Description: as §3

[27] = test system: potato leaf hopper; assay: Field trials against pest species; conditions: field trial, host alfalfa (Lucerne)
Description: as §3

[28] = test system: rosy apple aphid; assay: Field trials against pest species; conditions: field trial, host apples
Description: as §3

[29] = test system: Dawson-hop aphid; assay: Field trials against pest species; conditions: field trial, host hops
Description: as §3

[30] = test system: white apple leafhopper; assay: Field trials against pest species; conditions: field trial, host apples
Description: as §3

[31] = test system: bean aphid; assay: Field trials against pest species; conditions: field trial, host bean, faba broad
Description: as §3

[32] = test system: pea aphid; assay: Field trials against pest species; conditions: field trial
Description: as §3

[33] = test system: green peach aphid; assay: Field trials against pest species; conditions: field trial
Description: as §3

[34] = test system: mites; assay: Field trials against pest species; conditions: field trial, host apples
Description: as §3

[35] = test system: cotton aphid; assay: Field trials against pest species; conditions: field trial, host cotton
Description: as §3

[36] = test system: apple rust mite; assay: Field trials against pest species; conditions: field trial, host apples
Description: as §3

[37] = test system: thrip; assay: Field trials against pest species; conditions: field trial, host privet
Description: as §3

[38] = test system: grape thrip; assay: Field trials against pest species; conditions: field trial, host grape (European)
Description: as §3

[39] = test system: wheat aphid; assay: Field trials against pest species; conditions: field trial, host wheat
Description: as §3

[40] = test system: yellow hickory aphid; assay: Field trials against pest species; conditions: field trial, host pecan nut
Description: as §3

[41] = test system: grape leafhopper; assay: Field trials against pest species; conditions: field trial, host grape (European)
Description: as §3

[42] = test system: greenhouse thrip; assay: Field trials against pest species; conditions: field trial, host azaleas
Description: as §3

[43] = test system: apple aphid; assay: Field trials against pest species; conditions: field trial, host apples
Description: as §3

[44] = test system: European red mite; assay: Field trials against pest species; conditions: field trial, host apples
Description: as §3

[45] = test system: Erysiphe sp.; assay: Field tests against plant pathogens; conditions: field test, crop sugar beet
From the text: as §1

[46] = Tetranychus urticae, foliar, percent mortality, foliar spray on squash, read-out: SM RESULTS %
[47] = summary statement in the description

## Cc1ccc(CCOc2ccnc3c(F)cccc23)cc1 [Example 212, 8-fluoro-4-[2-(4-methylphenyl)ethoxy]quinoline]
[1]
  pest or weed control at 400 ppm: 90 to 100%
  activity against downy mildew: particularly excellent activity
[2]
  pest or weed control at 400 ppm: 90 to 100%
[3]
  activity against a broad spectrum of plant pathogens: particularly excellent activity
[4]; [46]
  mortality at 200 ppm: 0%
[5]
  pest or weed control at 400 ppm: 90 to 100%
[6]
  mortality at 12 ppm: 0%
[7]
  pathogens against which compounds of the invention showed activity: Pyrenophora teres
[8]
  pathogens against which compounds of the invention showed activity: Pseudocercosporella herpotrichoides
[9]
  pathogens against which compounds of the invention showed activity: Erysiphe graminis tritici
[10]
  pathogens against which compounds of the invention showed activity: Sphaerotheca fuliginea
[11]
  pathogens against which compounds of the invention showed activity: Rhynchosporium secalis
[12]
  pathogens against which compounds of the invention showed activity: Podosphaera leucotricha
[13]
  pathogens against which compounds of the invention showed activity: Plasmopara viticola
[14]
  pathogens against which compounds of the invention showed activity: Uncinula necator
[15]
  pathogens against which compounds of the invention showed activity: Alternaria brassica
[16]
  pest or weed control at 400 ppm: 0 to 19%
[17]
  pest or weed control at 400 ppm: 0 to 19%
[18]
  mortality at 200 ppm: 0%
[19]
  pest or weed control at 400 ppm: 90 to 100%
[20]
  pest or weed control at 400 ppm: 90 to 100%
[20]; [47]
  activity against rice blast: particularly excellent activity
[21]
  pathogens against which compounds of the invention showed activity: Piricularia oryzae
[22]
  mortality at 200 ppm: 0%
[23]
  pest or weed control at 400 ppm: 90 to 100%

## CC(C)(C)c1ccc(CCOc2ccnc3c(F)cccc23)cc1 [Example 221, 4-[2-[4-(t-butyl)phenyl]ethoxy]-8-fluoroquinoline]
[1]
  pest or weed control at 400 ppm: 90 to 100%
  activity against downy mildew: particularly excellent activity
[2]
  pest or weed control at 400 ppm: 20 to 89%
[4]; [46]
  mortality at 200 ppm: 90%
[4]; Tetranychus urticae, foliar, percent mortality, rate 400 ppm, foliar spray on squash, read-out: SM RESULTS %
  mortality at 400 ppm: 90%
[4]; [47]
  activity as miticides: particularly excellent activity
[5]
  pest or weed control at 400 ppm: 20 to 89%
[24]
  pest species against which it showed activity: green cloverworm
[25]
  pest species against which it showed activity: twospotted spider mite
[26]
  pest species against which it showed activity: tarnished plant bug
[27]
  pest species against which it showed activity: potato leaf hopper
[28]
  pest species against which it showed activity: rosy apple aphid
[29]
  pest species against which it showed activity: Dawson-hop aphid
[30]
  pest species against which it showed activity: white apple leafhopper
[31]
  pest species against which it showed activity: bean aphid
[32]; host alfalfa (Lucerne)
  pest species against which it showed activity: pea aphid
[32]; host pea, garden (English)
  pest species against which it showed activity: pea aphid
[33]; host apples
  pest species against which it showed activity: green peach aphid
[33]; host sugar beet
  pest species against which it showed activity: green peach aphid
[34]
  pest species against which it showed activity: mites
[35]
  pest species against which it showed activity: cotton aphid
[36]
  pest species against which it showed activity: apple rust mite
[37]
  pest species against which it showed activity: thrip
[38]
  pest species against which it showed activity: grape thrip
[39]
  pest species against which it showed activity: wheat aphid
[40]
  pest species against which it showed activity: yellow hickory aphid
[41]
  pest species against which it showed activity: grape leafhopper
[42]
  pest species against which it showed activity: greenhouse thrip
[43]
  pest species against which it showed activity: apple aphid
[44]
  pest species against which it showed activity: European red mite
[6]
  mortality at 12 ppm: 40%
[6]; CRW rate 24.00 ppm
  mortality at 24 ppm: 0%
[45]
  pathogens against which compounds of the invention showed activity: Erysiphe sp.
[16]
  pest or weed control at 400 ppm: 90 to 100%
[17]
  pest or weed control at 400 ppm: 0 to 19%
[18]
  mortality at 200 ppm: 0%
[18]; rate 400 ppm
  mortality at 400 ppm: 0%
[19]
  pest or weed control at 400 ppm: 90 to 100%
[20]
  pest or weed control at 400 ppm: 0 to 19%
[22]
  mortality at 200 ppm: 90%
[22]; rate 400 ppm
  mortality at 400 ppm: 80%
[23]
  pest or weed control at 400 ppm: 90 to 100%
